Data: patent US10301280B2 (Plexxikon Inc., priority 2012, dated 2019)

Assays:
c-kit mutant D816V = c-kit mutant D816V (Homo sapiens (Human), UniProt P10721, D816V/DEL694-753); assay: c-Kit mutant D816V biochemical assay (AlphaScreen); conditions: c-kit D816V biochemical inhibitory activity
Procedure, shortened: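 His-tagged c-Kit D816V kinase domain (551-934, Δ694-753, E. coli) phosphorylating 30 nM biotin-(E4Y)10 at 10 μM ATP in HEPES pH 7.2 with Mg/Mn, 5% DMSO, 30 min at room temperature. PY20-acceptor/streptavidin-donor AlphaScreen detection after EDTA stop. IC50 from 8-point 1:3 titration.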

[1] = test system: BaF3-FL KIT D816V or BaF3-FL KIT V560G/D816V cell line; assay: Cell-based assays of c-Kit mutant kinase activity (cell growth, ATPlite); conditions: at least one of the c-kit cell assays of Example 26
Procedure, shortened: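 IC50 derived from ATP-content luminescence (ATPlite) after three-day compound exposure at 37° C., 5% CO2. Cells: BaF3 rendered growth-dependent on full-length human KIT D816V or V560G/D816V, 1×10^4 per well, RPMI plus 10% FBS; 8 points, 1:3 steps, maximum 10 μM final, 0.2% DMSO.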

Chain of c-kit mutant D816V (P10721 other isoform, or with tags, fused parts or gaps D816V/del 694-753): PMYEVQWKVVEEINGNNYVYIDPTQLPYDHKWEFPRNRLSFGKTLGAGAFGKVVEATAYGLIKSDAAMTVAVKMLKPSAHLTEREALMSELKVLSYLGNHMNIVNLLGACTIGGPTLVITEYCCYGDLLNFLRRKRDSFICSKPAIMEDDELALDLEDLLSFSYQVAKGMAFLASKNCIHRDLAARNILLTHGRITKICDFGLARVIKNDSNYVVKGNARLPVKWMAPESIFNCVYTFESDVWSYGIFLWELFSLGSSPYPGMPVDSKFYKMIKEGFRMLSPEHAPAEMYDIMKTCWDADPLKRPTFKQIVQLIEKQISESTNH

| Structure (SMILES) | IC50 (c-kit mutant D816V) [µM] | IC50 [1] [nM] |
| --- | --- | --- |
| Cc1n[nH]c(C(=O)Nc2cnc3[nH]nc(C)c3c2)c1C [P-2040, 3,4-dimethyl-N-(3-methyl-1H-pyrazolo[3,4-b]pyridin-5-yl)-1H-pyrazole-5-carboxamide] | 0.0001 to 1 | < 10000 |
| O=C(Nc1cnc2[nH]c(-c3ccccc3)cc2c1)c1ncccc1F [P-2012, 3-fluoro-N-(2-phenyl-1H-pyrrolo[2,3-b]pyridin-5-yl)pyridine-2-carboxamide] | 1 to 10 | < 10000 |
| Cc1n[nH]c(C(=O)Nc2cnc3[nH]c(-c4ccc(CC(=O)O)cc4)cc3c2)c1C [P-2295, 2-[4-[5-[(3,4-dimethyl-1H-pyrazole-5-carbonyl)amino]-1H-pyrrolo[2,3-b]pyridin-2-yl]phenyl]acetic acid] | 0.0001 to 1 | < 10000 |
| COC(=O)c1cccc(C(=O)Nc2cnc3[nH]c(-c4ccccc4)cc3c2)c1 [P-2290, methyl 3-[(2-phenyl-1H-pyrrolo[2,3-b]pyridin-5-yl)carbamoyl]benzoate] | 10 to 200 | < 10000 |
| Cc1n[nH]c(C(=O)Nc2cnc3[nH]c(-c4ccc(C5(C(=O)O)CC5)cc4)cc3c2)c1C [P-2294, 1-[4-[5-[(3,4-dimethyl-1H-pyrazole-5-carbonyl)amino]-1H-pyrrolo[2,3-b]pyridin-2-yl]phenyl]cyclopropanecarboxylic acid] | 0.0001 to 1 | < 10000 |
| Cc1n[nH]c(C(=O)Nc2cnc3c(c2)cc(C2=CCN(C(=O)N4CCOCC4)CC2)n3S(=O)(=O)c2ccccc2)c1C [P-2033, N-[1-(benzenesulfonyl)-2-[1-(morpholine-4-carbonyl)-3,6-dihydro-2H-pyridin-4-yl]pyrrolo[2,3-b]pyridin-5-yl]-3,4-dimethyl-1H-pyrazole-5-carboxamide] | 0.0001 to 1 | < 10000 |
| Cc1cccnc1C(=O)Nc1cnc2[nH]c(-c3ccccc3)cc2c1 [P-2016, 3-methyl-N-(2-phenyl-1H-pyrrolo[2,3-b]pyridin-5-yl)pyridine-2-carboxamide] | 1 to 10 | < 10000 |
| Cc1nn(C)cc1-c1cc2cc(NC(=O)c3[nH]nc(C)c3C)cnc2[nH]1 [P-2038, N-[2-(1,3-dimethylpyrazol-4-yl)-1H-pyrrolo[2,3-b]pyridin-5-yl]-4,5-dimethyl-1H-pyrazole-3-carboxamide] | 0.0001 to 1 | < 10000 |
| Cc1noc(C)c1C(=O)Nc1cnc2[nH]c(-c3ccccc3)cc2c1 [P-2013, 3,5-dimethyl-N-(2-phenyl-1H-pyrrolo[2,3-b]pyridin-5-yl)isoxazole-4-carboxamide] | 10 to 200 | < 10000 |
| Cc1cc(-c2cc3cc(NC(=O)c4[nH]nc(C)c4C)cnc3[nH]2)ccc1C(=O)O [P-2296, 4-[5-[(3,4-dimethyl-1H-pyrazole-5-carbonyl)amino]-1H-pyrrolo[2,3-b]pyridin-2-yl]-2-methyl-benzoic acid] | 0.0001 to 1 | < 10000 |
| CCNS(=O)(=O)c1cccc(Nc2ncc(NC(=O)c3[nH]nc(C)c3C)cn2)c1 [P-2050, N-[2-[3-(ethylsulfamoyl)anilino]pyrimidin-5-yl]-3,4-dimethyl-1H-pyrazole-5-carboxamide] | 1 to 10 | < 10000 |
| CCCS(=O)(=O)Nc1cccc(Nc2ncc(NC(=O)c3[nH]nc(C)c3C)cn2)c1 [P-2052, 3,4-dimethyl-N-[2-[3-(propylsulfonylamino)anilino]pyrimidin-5-yl]-1H-pyrazole-5-carboxamide] | 0.0001 to 1 | < 10000 |
| Cc1n[nH]c(C(=O)Nc2cnc3[nH]c(-c4ccnc(N5CCN(C(=O)CC#N)CC5)c4)cc3c2)c1C [P-2189, N-[2-[2-[4-(2-cyanoacetyl)piperazin-1-yl]-4-pyridyl]-1H-pyrrolo[2,3-b]pyridin-5-yl]-3,4-dimethyl-1H-pyrazole-5-carboxamide] | 0.0001 to 1 | < 10000 |
| Cc1n[nH]c(C(=O)Nc2cnc3[nH]c(-c4ccncc4Cl)cc3c2)c1C [P-2278, N-[2-(3-chloro-4-pyridyl)-H-pyrrolo[2,3-b]pyridin-5-yl]-3,4-dimethyl-1H-pyrazole-5-carboxamide] | 0.0001 to 1 | < 10000 |
| O=C(Nc1cnc2[nH]c(-c3ccc(F)cc3)cc2c1)c1n[nH]c2c1CCCC2 [P-2047, N-[2-(4-fluorophenyl)-1H-pyrrolo[2,3-b]pyridin-5-yl]-4,5,6,7-tetrahydro-1H-indazole-3-carboxamide] | 0.0001 to 1 | < 10000 |
| Cc1n[nH]c(C(=O)Nc2cnc3[nH]c(Cl)cc3c2)c1C [P-2049, N-(2-chloro-1H-pyrrolo[2,3-b]pyridin-5-yl)-3,4-dimethyl-1H-pyrazole-5-carboxamide] | 0.0001 to 1 | < 10000 |
| [2H]c1c([2H])c([2H])c(-c2cc3cc(NC(=O)c4[nH]nc(C)c4C)cnc3[nH]2)c([2H])c1[2H] [P-2164, 3,4-dimethyl-N-[2-(2,3,4,5,6-pentadeuteriophenyl)-1H-pyrrolo[2,3-b]pyridin-5-yl]-1H-pyrazole-5-carboxamide] | 0.0001 to 1 | < 10000 |

| Structure (SMILES) | IC50 (c-kit mutant D816V) [µM] | IC50 [1] [nM] |
| --- | --- | --- |
| Cc1cncc(-c2cc3cc(NC(=O)c4[nH]nc(C)c4C)cnc3[nH]2)c1 [P-2184, 3,4-dimethyl-N-[2-(5-methyl-3-pyridyl)-1H-pyrrolo[2,3-b]pyridin-5-yl]-1H-pyrazole-5-carboxamide] | 0.0001 to 1 | < 10000 |
| Cc1n[nH]c(C(=O)Nc2cnc3[nH]c(-c4ccc(F)cc4OC(F)F)cc3c2)c1C [P-2268, N-[2-[2-(difluoromethoxy)-4-fluoro-phenyl]-1H-pyrrolo[2,3-b]pyridin-5-yl]-3,4-dimethyl-1H-pyrazole-5-carboxamide] | 0.0001 to 1 | < 10000 |
| Cc1n[nH]c(C(=O)Nc2cnc3[nH]c(-c4ccnc5c4OCCO5)cc3c2)c1C [P-2179, N-[2-(2,3-dihydro-[1,4]dioxino[2,3-b]pyridin-8-yl)-1H-pyrrolo[2,3-b]pyridin-5-yl]-3,4-dimethyl-H-pyrazole-5-carboxamide] | 0.0001 to 1 | < 10000 |
| Cc1nn(C2CNC2)cc1-c1cc2cc(NC(=O)c3[nH]nc(C)c3C)cnc2[nH]1 [P-2286, N-[2-[1-(azetidin-3-yl)-3-methyl-pyrazol-4-yl]-1H-pyrrolo[2,3-b]pyridin-5-yl]-3,4-dimethyl-1H-pyrazole-5-carboxamide] | 0.0001 to 1 | < 10000 |
| Cc1n[nH]c(C(=O)Nc2cnc3[nH]c(-c4cccc(CC(=O)O)c4)cc3c2)c1C [P-2293, 2-[3-[5-[(3,4-dimethyl-1H-pyrazole-5-carbonyl)amino]-1H-pyrrolo[2,3-b]pyridin-2-yl]phenyl]acetic acid] | 0.0001 to 1 | < 10000 |
| O=C(O)c1cccc(C(=O)Nc2cnc3[nH]c(-c4ccccc4)cc3c2)c1 [P-2291, 3-[(2-phenyl-1H-pyrrolo[2,3-b]pyridin-5-yl)carbamoyl]benzoic acid] | 10 to 200 | < 10000 |
| Cc1n[nH]nc1C(=O)Nc1cnc2[nH]c(-c3ccc(F)cc3)cc2c1 [P-2037, N-[2-(4-fluorophenyl)-1H-pyrrolo[2,3-b]pyridin-5-yl]-5-methyl-2H-triazole-4-carboxamide] | 0.0001 to 1 | < 10000 |
| Cc1cc(C(=O)Nc2cnc3[nH]c(N4CCOCC4)cc3c2)[nH]n1 [P-2058, 3-methyl-N-(2-morpholino-1H-pyrrolo[2,3-b]pyridin-5-yl)-1H-pyrazole-5-carboxamide] | 0.0001 to 1 | < 10000 |
| Cc1n[nH]c(C(=O)Nc2cnc3[nH]c(-c4cccc5c4OC(F)(F)O5)cc3c2)c1C [P-2281, N-[2-(2,2-difluoro-1,3-benzodioxol-4-yl)-1H-pyrrolo[2,3-b]pyridin-5-yl]-3,4-dimethyl-1H-pyrazole-5-carboxamide] | 0.0001 to 1 | < 10000 |
| Cc1cc(Cl)ccc1-c1cc2cc(NC(=O)c3[nH]nc(C)c3C)cnc2[nH]1 [P-2277, N-[2-(4-chloro-2-methyl-phenyl)-1H-pyrrolo[2,3-b]pyridin-5-yl]-3,4-dimethyl-1H-pyrazole-5-carboxamide] | 0.0001 to 1 | < 10000 |
| Cc1n[nH]c(C(=O)Nc2cnc(Nc3cccc(N4CCOCC4)c3)nc2)c1C [P-2051, 3,4-dimethyl-N-[2-(3-morpholinoanilino)pyrimidin-5-yl]-1H-pyrazole-5-carboxamide] | 0.0001 to 1 | < 10000 |
| Cc1n[nH]c(C(=O)Nc2cnc3[nH]c(C4=CCN(S(C)(=O)=O)CC4)cc3c2)c1Cl [P-2057, 4-chloro-3-methyl-N-[2-(1-methylsulfonyl-3,6-dihydro-2H-pyridin-4-yl)-1H-pyrrolo[2,3-b]pyridin-5-yl]-1H-pyrazole-5-carboxamide] | 0.0001 to 1 | < 10000 |
| Cc1n[nH]c(C(=O)Nc2cnc3[nH]c(-c4ccc(C(=O)O)c(F)c4)cc3c2)c1C [P-2292, 4-[5-[(3,4-dimethyl-1H-pyrazole-5-carbonyl)amino]-1H-pyrrolo[2,3-b]pyridin-2-yl]-2-fluoro-benzoic acid] | 0.0001 to 1 | < 10000 |
| Cc1n[nH]c(C(=O)Nc2cnc3[nH]nc(-c4cccc(N5CCN(C(=O)OC(C)(C)C)CC5)c4)c3c2)c1C [P-2162, tert-butyl 4-[3-[5-[(3,4-dimethyl-1H-pyrazole-5-carbonyl)amino]-1H-pyrazolo[3,4-b]pyridin-3-yl]phenyl]piperazine-1-carboxylate] | 1 to 10 | < 10000 |
| Cc1n[nH]c(C(=O)Nc2ccc(Nc3ccccc3)nc2)c1C [P-2045, N-(6-anilino-3-pyridyl)-3,4-dimethyl-1H-pyrazole-5-carboxamide] | 0.0001 to 1 | < 10000 |
| O=C(Nc1cnc2[nH]c(-c3ccccc3)cc2c1)c1cccc2n[nH]cc12 [P-2289, N-(2-phenyl-1H-pyrrolo[2,3-b]pyridin-5-yl)-2H-indazole-4-carboxamide] | 1 to 10 | < 10000 |
